Experimental data taken from US9951064B2, “Azaindazole compounds as inhibitors of T790M containing EGFR mutants” (Genentech, Inc., priority 2013, dated 2018).

How the values were obtained:
[1] = target: T1, EGFR T790M L858R (Homo sapiens, UniProt P00533, L858R/T790M); test: EGFR T790M L858R biochemical assay (Caliper mobility shift); settings: 5 μM ATP; apparent Ki (Morrison fit) converted by Cheng-Prusoff, Km of ATP 1.3 μM
T1 construct: purchased Life Technologies PV4879
Description: The exemplified compounds described herein were tested according to the assay below. The enzyme data reported in Tables 4-5 is generally a representative of multiple experiments.
Reactions proceed for 30 minutes at room temperature (22° C.) and are terminated with 80 mM 2,2′,2″,2′″-(ethane-1,2-diyldinitrilo)tetraacetic acid (EDTA). Product is detected using the Caliper mobility shift detection method where product and substrate are electrophoretically separated and measured.

[2] = test system: H1975 (EGFR T790M/L858R) cell proliferation; test: H1975 proliferation assay (Cell Titer-Glo); assay type: cell-based; settings: Homo sapiens, NCI-H1975, 72 h, NCI-H1975 cells, 72 hour incubation, read-out: H1975 antiproliferative EC50
Description: H1975 Proliferation Assays
All cell culture reagents were purchased from Invitrogen/Gibco. Cells are cultured at 37° C. at 5% CO2 and split as recommended by ATCC.

[3] = target: T2, phosphor-EGFR in H1975(L585R/T790M) mutant EGFR expressing cells (Homo sapiens, UniProt P00533, L858R/T790M); test: H1975 pEGFR MSD cellular assay; assay type: cell-based; settings: NCI-H1975 cells, serum starved, 1 hour compound incubation, pEGFR Tyr1068 MSD; read-out: HI975 pEGFR EC50
T2 construct: host or cells: NCI-H1975
Description: H1975 pEGFR MSD Cellular Assays
These assays are intended for determining cellular. […] (Meso Scale Discovery Catalog# N31CB-1).
NCI-H1975 (ATCC Catalog# CRL-5908) cells are maintained in medium containing RPMI 1640, 10% FBS, 4 mM L-Glutamine, 1% Penicillin-Streptomycin, and 4.5 g/L Glucose. All cell culture reagents were purchased from Invitrogen/Gibco. Cells are cultured at 37° C. at 5% CO2 and split as recommended by ATCC.
Cell Plating and Serum Starvation:
H1975 cells are harvested and plated into sterile cell culture treated 384 well plates (Greiner catalog #781091) at a density of 30,000 cells/well in 50 ul culture medium and placed in a 37° C. at 5% CO2 incubator for six hours. After six hours, culture medium is aspirated and replaced with serum-free culture medium. Cells are then incubated with the serum-free medium overnight at 37° C. and 5% CO2.
The following day, test compounds are serially diluted in dimethyl sulfoxide (DMSO) and added to cells in serum free medium (final DMSO concentration 0.5%). Assay plates are then incubated for 1 hour at 37° C. and 5% CO2. Following 1 hour of compound incubation cells are then lysed and processed as per the MSD pEGFR assay kit protocol. Cell lysates are added to assay plates pre-coated with antibodies against phosphorylated EGFR. Phosphorylated EGFR in samples are allowed to bind to the capture antibodies overnight at 4° C. The detection antibody (anti-total EGFR, labeled with an electrochemiluminescent SULFO-TAG) is added to the bound lysate and incubated for 1 hour at room temperature. The MSD Read Buffer is added such that when a voltage is applied to the plate electrodes, the labels bound to the electrode surface emit light. The MSD Sector Instrument measures the intensity of the light, and quantitatively measures the amount of phosphorylated-EGFR in the sample. Percent inhibition of EGFR phosphorylation by varying concentrations of test compounds is calculated relative to untreated controls. EC50 values are calculated using the 4 parameter logistic nonlinear regression dose-response model.

T2 sequence (P00533 25-1210 T790M/L858R): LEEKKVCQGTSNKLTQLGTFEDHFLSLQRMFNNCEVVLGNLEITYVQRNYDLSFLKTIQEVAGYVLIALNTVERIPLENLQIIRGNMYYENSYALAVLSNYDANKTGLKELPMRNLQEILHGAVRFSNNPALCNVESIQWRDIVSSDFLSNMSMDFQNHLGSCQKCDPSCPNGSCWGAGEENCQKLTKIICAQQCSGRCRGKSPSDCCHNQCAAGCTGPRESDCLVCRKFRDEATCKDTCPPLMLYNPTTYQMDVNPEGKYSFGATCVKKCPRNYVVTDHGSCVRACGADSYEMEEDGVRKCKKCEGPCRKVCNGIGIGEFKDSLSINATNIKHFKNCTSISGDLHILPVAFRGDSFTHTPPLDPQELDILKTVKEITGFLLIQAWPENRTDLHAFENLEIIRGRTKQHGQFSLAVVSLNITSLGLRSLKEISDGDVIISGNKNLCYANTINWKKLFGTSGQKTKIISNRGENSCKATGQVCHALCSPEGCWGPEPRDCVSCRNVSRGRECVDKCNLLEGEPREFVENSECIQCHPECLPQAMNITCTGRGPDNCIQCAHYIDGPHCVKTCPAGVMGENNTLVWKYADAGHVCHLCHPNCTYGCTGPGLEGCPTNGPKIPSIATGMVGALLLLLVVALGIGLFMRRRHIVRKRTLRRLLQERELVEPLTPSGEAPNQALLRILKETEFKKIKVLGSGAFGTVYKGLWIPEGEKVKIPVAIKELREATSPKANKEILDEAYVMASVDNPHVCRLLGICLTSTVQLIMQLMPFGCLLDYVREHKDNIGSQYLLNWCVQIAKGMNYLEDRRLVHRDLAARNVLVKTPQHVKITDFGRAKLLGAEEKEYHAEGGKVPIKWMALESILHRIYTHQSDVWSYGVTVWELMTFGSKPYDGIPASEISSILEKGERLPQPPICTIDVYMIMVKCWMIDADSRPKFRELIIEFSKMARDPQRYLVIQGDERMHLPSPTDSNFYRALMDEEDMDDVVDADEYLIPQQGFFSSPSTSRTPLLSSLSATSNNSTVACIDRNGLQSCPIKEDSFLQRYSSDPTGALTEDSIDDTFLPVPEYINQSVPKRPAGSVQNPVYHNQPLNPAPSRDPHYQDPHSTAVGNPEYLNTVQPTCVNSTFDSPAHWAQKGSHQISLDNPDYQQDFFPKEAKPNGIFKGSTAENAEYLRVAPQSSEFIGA
T1 sequence (P00533 25-1210 T790M/L858R): as above

Row | SMILES | Ki [1] [nM] | EC50 [2] [nM] | EC50 [3] [nM]
1 | CC(C)n1nc(N2CCOCC2)c2cnc(Nc3ccnc(-c4cnn(CC5CC5)c4)n3)cc21 [Example 9, N-(2-(1-(Cyclopropylmethyl)-1H-pyrazol-4-yl)pyrimidin-4-yl)-1-isopropyl-3-morpholino-1H-pyrazolo[4,3-c]pyridin-6-amine] | 5.2 | 1840 | 382
2 | CC(C)n1nc(N2CCS(=O)(=O)CC2)c2cnc(Nc3ccnc(-c4cnn(S(=O)(=O)C5CC5)c4)n3)cc21 [Example 1, 4-(6-((2-(1-(Cyclopropylsulfonyl)-1H-pyrazol-4-yl)pyrimidin-4-yl)amino)-1-isopropyl-1H-pyrazolo[4,3-c]pyridin-3-yl)thiomorpholine 1,1-dioxide] | 609 | 2020 | 606
3 | CC(C)n1nc(N2CC[C@@H](C#N)C2)c2cnc(Nc3ccnc(-c4cnn(S(=O)(=O)C5CC5)c4)n3)cc21 [Example 28, (R)-1-(6-((2-(1-(Cyclopropylsulfonyl)-1H-pyrazol-4-yl)pyrimidin-4-yl)amino)-1-isopropyl-1H-pyrazolo[4,3-c]pyridin-3-yl)pyrrolidine-3-carbonitrile] | 0.8 | 121 | 15.7
4 | COCCNC(=O)C1CN(c2nn(C(C)C)c3cc(Nc4ccnc(-c5cnn(S(=O)(=O)C6CC6)c5)n4)ncc23)C1 [Example 30, 1-(6-(2-(1-(Cyclopropylsulfonyl)-1H-pyrazol-4-yl)pyrimidin-4-ylamino)-1-isopropyl-1H-pyrazolo[4,3-c]pyridin-3-yl)-N-(2-methoxyethyl)azetidine-3-carboxamide] | 0.7 | 1450 | 51.3
5 | CC(C)n1nc(N2CC3(COC3)C2)c2cnc(Nc3ccnc(-c4cnn(S(=O)(=O)C5CC5)c4)n3)cc21 [Example 5, N-(2-(1-(Cyclopropylsulfonyl)-1H-pyrazol-4-yl)pyrimidin-4-yl)-1-isopropyl-3-(2-oxa-6-azaspiro[3.3]heptan-6-yl)-1H-pyrazolo[4,3-c]pyridin-6-amine] | 1 | 421 | 29.6
6 | CC(C)n1nc(OC2CCOC2)c2cnc(Nc3ccnc(-c4cnn(S(=O)(=O)C5CC5)c4)n3)cc21 (stereo not drawn) [Example 29, N-(2-(1-(Cyclopropylsulfonyl)-1H-pyrazol-4-yl)pyrimidin-4-yl)-1-isopropyl-3-(tetrahydrofuran-3-yloxy)-1H-pyrazolo[4,3-c]pyridin-6-amine] | 1.9 | 798 | 154
7 | CCC(C)n1nc(N2CCNC2=O)c2cnc(Nc3ccnc(N4CC[C@@H](OC)[C@@H](F)C4)n3)cc21 (mixture of isomers) [Example 26, (±)-1-(1-(sec-Butyl)-6-((2-(cis-3-fluoro-4-methoxypiperidin-1-yl)pyrimidin-4-yl)amino)-1H-pyrazolo[4,3-c]pyridin-3-yl)imidazolidin-2-one] | 0.6 | 108 | 14.4
8 | CCC(C)n1nc(N2CC(C(C)(C)O)C2)c2cnc(Nc3ccnc(N4CCC(O)C(C)(C)C4)n3)cc21 (mixture of isomers) [Example 12, 1-(4-((1-(sec-Butyl)-3-(3-(2-hydroxypropan-2-yl)azetidin-1-yl)-1H-pyrazolo[4,3-c]pyridin-6-yl)amino)pyrimidin-2-yl)-3,3-dimethylpiperidin-4-ol] | 2.2 | 288 | 30.2

Now from value to molecule:

Row | Ki [1] [nM] | EC50 [2] [nM] | EC50 [3] [nM] | SMILES
9 | 35.6 | 498 | 3830 | CC(C)n1ncc2cnc(Nc3ccnc(-c4cnn(CC5CC5)c4)n3)cc21 [Example 32, N-(2-(1-(cyclopropylmethyl)-1H-pyrazol-4-yl)pyrimidin-4-yl)-1-isopropyl-1H-pyrazolo[4,3-c]pyridin-6-amine]
10 | 1.9 | 266 | 74.4 | CC(C)n1nc(N2CCOCC2)c2cnc(Nc3ccnc(-c4cnn(S(=O)(=O)C5CC5)c4)n3)cc21 [Example 51, N-(2-(1-(cyclopropylsulfonyl)-1H-pyrazol-4-yl)pyrimidin-4-yl)-1-isopropyl-3-morpholino-1H-pyrazolo[4,3-c]pyridin-6-amine]
11 | < 0.6 | 159 | 18.1 | CC(C)n1nc(N2CC(C(=O)N(C)C)C2)c2cnc(Nc3ccnc(-c4cnn(S(=O)(=O)C5CC5)c4)n3)cc21 [Example 57, 1-(6-(2-(1-(cyclopropylsulfonyl)-1H-pyrazol-4-yl)pyrimidin-4-ylamino)-1-isopropyl-1H-pyrazolo[4,3-c]pyridin-3-yl)-N,N-dimethylazetidine-3-carboxamide]
12 | 1.1 | 373 | 71.1 | CC(C)n1nc(N[C@H]2CCOC2)c2cnc(Nc3ccnc(-c4cnn(S(=O)(=O)C5CC5)c4)n3)cc21 [Example 39, (S)-N6-(2-(1-(cyclopropylsulfonyl)-1H-pyrazol-4-yl)pyrimidin-4-yl)-1-isopropyl-N3-(tetrahydrofuran-3-yl)-1H-pyrazolo[4,3-c]pyridine-3,6-diamine]
13 | 0.6 | 5440 | 1460 | CC(C)n1nc(NCC(N)=O)c2cnc(Nc3ccnc(-c4cnn(S(=O)(=O)C5CC5)c4)n3)cc21 [Example 48, 2-(6-(2-(1-(cyclopropylsulfonyl)-1H-pyrazol-4-yl)pyrimidin-4-ylamino)-1-isopropyl-1H-pyrazolo[4,3-c]pyridin-3-ylamino)acetamide]
14 | < 0.6 | 938 | 144 | CC(C)n1nc(N2CC(C(N)=O)C2)c2cnc(Nc3ccnc(-c4cnn(S(=O)(=O)C5CC5)c4)n3)cc21 [Example 55, 1-(6-(2-(1-(cyclopropylsulfonyl)-1H-pyrazol-4-yl)pyrimidin-4-ylamino)-1-isopropyl-1H-pyrazolo[4,3-c]pyridin-3-yl)azetidine-3-carboxamide]
15 | 23.5 | 3700 | 2380 | CC(C)c1nn(C(C)C)c2cc(Nc3ccnc(-c4cnn(S(=O)(=O)C5CC5)c4)n3)ncc12 [Example 50, N-(2-(1-(cyclopropylsulfonyl)-1H-pyrazol-4-yl)pyrimidin-4-yl)-1,3-diisopropyl-1H-pyrazolo[4,3-c]pyridin-6-amine]
16 | 1.2 | 348 | 31.1 | CC(C)n1nc(N2CC(C(=O)N(C)C)C2)c2cnc(Nc3ccnc(N4CCC(O)C(C)(C)C4)n3)cc21 (stereo not drawn) [Example 56, 1-(6-(2-(4-hydroxy-3,3-dimethylpiperidin-1-yl)pyrimidin-4-ylamino)-1-isopropyl-1H-pyrazolo[4,3-c]pyridin-3-yl)-N,N-dimethylazetidine-3-carboxamide]
17 | 1 | 1200 | 68.9 | CC(C)n1nc(NCC(C)(C)O)c2cnc(Nc3ccnc(-c4cnn(S(=O)(=O)C5CC5)c4)n3)cc21 [Example 61, 1-(6-(2-(1-(cyclopropylsulfonyl)-1H-pyrazol-4-yl)pyrimidin-4-ylamino)-1-isopropyl-1H-pyrazolo[4,3-c]pyridin-3-ylamino)-2-methylpropan-2-ol]
18 | 0.8 | 247 | 63.8 | CC(C)n1nc(N)c2cnc(Nc3ccnc(-c4cnn(S(=O)(=O)C5CC5)c4)n3)cc21 [Example 45, N^6-(2-(1-(cyclopropylsulfonyl)-1H-pyrazol-4-yl)pyrimidin-4-yl)-1-isopropyl-1H-pyrazolo[4,3-c]pyridine-3,6-diamine]
19 | 0.7 | 397 | 15.8 | CCS(=O)(=O)n1cc(-c2nccc(Nc3cc4c(cn3)c(N3CC(CO)C3)nn4C(C)C)n2)cn1 [Example 36, (1-(6-(2-(1-(ethylsulfonyl)-1H-pyrazol-4-yl)pyrimidin-4-ylamino)-1-isopropyl-1H-pyrazolo[4,3-c]pyridin-3-yl)azetidin-3-yl)methanol]
20 | 12 | 3590 | 458 | CC(C)Oc1nn(C(C)C)c2cc(Nc3ccnc(-c4cnn(S(=O)(=O)C5CC5)c4)n3)ncc12 [Example 62, N-(2-(1-(cyclopropylsulfonyl)-1H-pyrazol-4-yl)pyrimidin-4-yl)-3-isopropoxy-1-isopropyl-1H-pyrazolo[4,3-c]pyridin-6-amine]
